Earlier results as cited in patent US9265757B2, “Methods of administering antihistamines” (APTAPHARMA INC., priority 2011, dated 2016).

conditions: second generation antihistamines; from time of administration to symptomatic relief

| Structure (SMILES) | lag time before onset of action |
| --- | --- |
| O=C(O)COCCN1CCN(C(c2ccccc2)c2ccc(Cl)cc2)CC1 (stereo not shown) [cetirizine] | several hours |
| CC(C)(C)c1ccc(C(O)CCCN2CCC(C(O)(c3ccccc3)c3ccccc3)CC2)cc1 (stereo not shown) [terfenadine] | several hours |
| COc1ccc(CCN2CCC(Nc3nc4ccccc4n3Cc3ccc(F)cc3)CC2)cc1 [astemizole] | several hours |
| CCOC(=O)N1CCC(=C2c3ccc(Cl)cc3CCc3cccnc32)CC1 [loratadine] | several hours |
